IC50 and inhibition data for 24 molecules are collected here from patent US10882837B2, “Amide compounds and use thereof” (ALPHALA CO., LTD., priority 2017, dated 2021).

SMILES strings stand for the structures. Some results are limits rather than exact numbers.

One may read the IC50 as the concentration at which inhibition is half-maximal. As a reminder, the inhibition is the relative decrease from the control value, in per cent.

One assay addresses T1, glucagon receptor (GCGR) (Homo sapiens, UniProt P47871).
T1 construct: expressed in transfected cells; host or cells: CHO-K1
The assay is described as follows: Glucagon cAMP inhibition assay (Cisbio cAMP Dynamic 2 HTRF). The assay is classed as cell-based. The settings on record: GCGR overexpressed CHO-K1 cells or human primary hepatocytes (not specified); glucagon at EC50. As for the experimental part: Glucagon eAMP Inhibition Assay
Downstream secondary messenger eAMP induced by glucagon was detected by Cisbio cAMP Dynamic 2 kit. Testing compounds were each prepared as a dimethyl sulfoxide (DMSO) solution at the concentration of 10 mM. To evaluate the potency of compounds in inhibiting the cAMP production, glucagon receptor (GCGR) overexpressed CHO-K1 cells or human primary hepatocytes were treated with compounds with a serial dilution. The cells were re-suspended in Hank's Balanced Salt solution (HBSS) contained 0.1% (w/v) bovine serum albumin and 800 nM 3-isobutyl-1-methylxanthine (IBMX) and seeded into low volume, 384 wells white plate. The diluted compounds were then added into the plate for 30 minutes pre-incubation where the final DMSO concentration was 1%. The cells were stimulated with glucagon at the concentration equaled to EC50 (an indicium of the concentration of a drag that gives half-maximal response) for 30 minutes at room temperature. After incubation, lysis buffer contain cAMP antibody and fluorescence acceptor were added into each well for additional 60 minutes incubation. Results were recorded by Molecular Devices SpectraMax Paradigm with the HTRF Detection Cartridges and the IC50 value of each compound in inhibiting the cAMP production was calculated with non-linear regression based on the amount of cAMP production.
In general terms: TR-FRET usually uses a lanthanide donor and a delayed reading to cut background.

The target of the next assay is GCGR (Homo sapiens, UniProt P47871). Briefly: I125-glucagon binding assay (competition, GCGR membrane fractions). Also on record: expressed in transfected cells; host or cells: CHO-K1; inhibition: dose or concentration left out as unconfirmed. Particulars: for IC50: competition with I125-glucagon 0.0625 nM, membrane fractions from GCGR overexpressed CHO-K1 cells. On the procedure:
I^125-Glucagon Binding Assay
The binding affinity of each compound was evaluated by a competition assay with I^125-glucagon. GCGR membrane fractions were obtained from GCGR overexpressed CHO-K1 cells as a stock of 1 mg/ml concentration. To evaluate the IC50 of compounds binding to GCGR, GCGR membrane fractions were treated with compounds with a serial dilution. The membrane fractions were diluted to 7.5 microgram per well in 70 microliter assay buffer contained 50 mM Tris pH 7.4 and 0.5% (w/v) bovine serum albumin and added into 96 wells plate. The membrane fractions were then mixed with 10 microliter diluted compounds. After 5 minutes pre-incubation, 20 microliter I^125 labeled glucagon (Perkin Elmer) was added into each well at the final concentration of 0.0625 nM. The assay mixtures were incubated at 25° C. for 30 minutes and then transferred onto the Millipore Multiscreen GF/B Plate coated with 0.5% (w/v) Polyethyleneimine. The filter plate was washed with wash buffer contained 50 mM Tris pH 7.4 for 2 times, 300 microliter each time. The residual isotope was detected by Hidex CHAMELEON V micro-beta counter and the IC50 value of each compound binding to GCGR was calculated with non-linear regression.

Chain of GCGR (P47871 26-477, species assumed): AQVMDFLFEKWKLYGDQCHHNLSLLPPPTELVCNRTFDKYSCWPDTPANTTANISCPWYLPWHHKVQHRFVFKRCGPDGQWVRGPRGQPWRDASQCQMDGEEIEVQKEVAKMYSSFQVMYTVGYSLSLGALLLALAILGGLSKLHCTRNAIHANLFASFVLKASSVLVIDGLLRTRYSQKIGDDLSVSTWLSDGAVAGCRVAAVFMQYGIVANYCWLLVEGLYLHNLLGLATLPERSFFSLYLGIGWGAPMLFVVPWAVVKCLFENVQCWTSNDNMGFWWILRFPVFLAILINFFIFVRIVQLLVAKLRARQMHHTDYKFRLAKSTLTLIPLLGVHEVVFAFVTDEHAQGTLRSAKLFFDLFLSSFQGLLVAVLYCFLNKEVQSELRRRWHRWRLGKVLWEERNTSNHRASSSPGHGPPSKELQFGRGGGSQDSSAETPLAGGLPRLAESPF
T1 sequence (P47871 26-477, species assumed): as above

As for `CCCCC(Nc1ccc(C(=O)NCCC(=O)O)cc1)c1ccc(-c2nc3ccccc3o2)cc1` (stereo not shown) [Compound 4-4, 3-(4-((1-(4-(benzo[d]oxazol-2-yl)phenyl)pentyl)amino)benzamido)propanoic acid], the IC50 was determined as 1080 nM against glucagon receptor (GCGR) and 101 nM at GCGR.

As to `CCCCC(Nc1ccc(C(=O)NCCC(=O)O)cc1)c1ccc(-c2noc(C(C)(C)C)n2)cc1` (stereo not shown) [Compound 2-4, 3-(4-((1-(4-(5-(tert-butyl)-1,2,4-oxadiazol-3-yl)phenyl)pentyl)amino)benzamido)propanoic acid], the IC50 against glucagon receptor (GCGR) stood at 329 nM; at GCGR, 164 nM.

For the molecule `CCOC(=O)CCNC(=O)c1ccc(NC(CC(C)C)c2ccc(-c3noc(C(C)(C)C)n3)cc2)cc1` (stereo not shown) [Compound 2-5, ethyl 3-(4-((1-(4-(5-(tert-butyl)-1,2,4-oxadiazol-3-yl)phenyl)-3-methylbutyl)amino)benzamido)propanoate], the results for the IC50 at glucagon receptor (GCGR) and on GCGR were 395 nM and 6250 nM, respectively. Also, the inhibition at GCGR (read-out: percentage of inhibition (number in parenthesis in IC50 binding column)) was 63%.

As to `CCCCC(Nc1ccc(C(=O)NCCC(=O)OC)cc1)c1ccc(-c2noc(-c3ccccc3)n2)cc1` (stereo not shown) [Compound 2-32, methyl 3-(4-((1-(4-(5-phenyl-1,2,4-oxadiazol-3-yl)phenyl)pentyl)amino)benzamido)propanoate], the IC50 against glucagon receptor (GCGR) was 147 nM; on GCGR, 616 nM.

Take `CCOC(=O)CCNC(=O)c1ccc(N[C@H](c2ccc(-c3nnc(C(F)(F)F)o3)cc2)C(C)C)cc1` [Compound 1-55, ethyl (S)-3-(4-((2-methyl-1-(4-(5-(trifluoromethyl)-1,3,4-oxadiazol-2-yl)phenyl)propyl)amino)benzamido)propanoate]: the results for the half-maximal inhibitory concentration (IC50) against glucagon receptor (GCGR) and at GCGR were 1360 nM and above 30000 nM, respectively.

For `CCCC(Nc1ccc(C(=O)NCCC(=O)OCC)cc1)c1ccc(-c2nnc(-c3ccccc3)o2)cc1` (stereo not shown) [Compound 1-6, Ethyl 3-(4-((1-(4-(5-phenyl-1,3,4-oxadiazol-2-yl)phenyl)butyl)amino)benzamido)propanoate], the figures for the IC50 on glucagon receptor (GCGR) and at GCGR were 31 nM and 2610 nM, respectively.

For `CCOC(=O)CCNC(=O)c1ccc(N[C@H](c2ccc(-c3nnc(C(F)(F)F)o3)cc2)C(C)CC)cc1` (stereo partly drawn) [Compound 1-34, ethyl 3-(4-(((1S)-2-methyl-1-(4-(5-(trifluoromethyl)-1,3,4-oxadiazol-2-yl)phenyl)butyl)amino)benzamido)propanoate], the values for the half-maximal inhibitory concentration (IC50) on glucagon receptor (GCGR) and on GCGR were 42 nM and 16100 nM, respectively.

Take `CCOC(=O)CCNC(=O)c1ccc(N[C@@H](c2ccc(-c3nc4ccccc4o3)cc2)C(C)C)cc1` [Compound 4-6, ethyl (R)-3-(4-((1-(4-(benzo[d]oxazol-2-yl)phenyl)-2-methylpropyl)amino)benzamido)propanoate]: the IC50 at glucagon receptor (GCGR) was 124 nM; at GCGR, above 3000 nM.

As to `CC(C)[C@H](Nc1ccc(-c2nnc(-c3ccccc3)o2)cc1)c1ccc(C(=O)NCCC(=O)O)cc1` [Compound 3-14, (S)-3-(4-(2-methyl-1-(4-(5-phenyl-1,3,4-oxadiazol-2-yl)phenylamino)propyl)benzamido)propanoic acid], the values for the half-maximal inhibitory concentration (IC50) at glucagon receptor (GCGR) and on GCGR were 1780 nM and 957 nM, respectively.

As to `O=C(O)CCNC(=O)c1ccc(N[C@@H](c2ccc(-c3nc4ccccc4o3)cc2)C2CCCC2)cc1` [Compound 4-12, (R)-3-(4-(((4-(benzo[d]oxazol-2-yl)phenyl)(cyclopentyl)methyl)amino)benzamido)propanoic acid], the IC50 on glucagon receptor (GCGR) was 754 nM; at GCGR, 23.8 nM.

Take `CC(C)C[C@H](Nc1ccc(C(=O)NCCC(=O)O)cc1)c1ccc(-c2nc3ccccc3o2)cc1` [Compound 4-18]: the values for the IC50 against glucagon receptor (GCGR) and on GCGR were 1750 nM and 83 nM, respectively.

`CCCCC(Nc1ccc(C(=O)NCCC(=O)OCC)cc1)c1ccc(-c2noc(C(C)(C)C)n2)cc1` (stereo not shown) [Compound 2-3]: the IC50 was 225 nM on glucagon receptor (GCGR) and above 30000 nM at GCGR.

Regarding `CCCC[C@@H](Nc1ccc(C(=O)NCCC(=O)OCC)cc1)c1ccc(-c2nnc(-c3ccccn3)o2)cc1` [Compound 1-44, ethyl (R)-3-(4-((1-(4-(5-(pyridin-2-yl)-1,1,3,4-oxadiazol-2-yl)phenyl)pentyl)amino)benzamido propanoate], the IC50 is 830 nM against glucagon receptor (GCGR) and above 30000 nM at GCGR.

Turning to `CCOC(=O)CCNC(=O)c1ccc(N[C@@H](CC(C)C)c2ccc(-c3nnc(-c4ccccc4)o3)cc2)cc1` [Compound 1-59, ethyl (S)-3-(4-((3-methyl-1-(4-(5-phenyl-1,3,4-oxadiazol-2-yl)phenyl)butyl)amino)benzamido)propanoate], the IC50 is 26 nM against glucagon receptor (GCGR) and above 30000 nM at GCGR.

On to `CCCC[C@H](Nc1ccc(C(=O)NCCC(=O)OCC)cc1)c1ccc(-c2noc(C(F)(F)F)n2)cc1` [Compound 2-45, ethyl (S)-3-(4-((1-(4-(5-(trifluoromethyl)-1,2,4-oxadiazol-3-yl)phenyl)pentyl)amino)benzamido)propanoate], for which the IC50 against glucagon receptor (GCGR) was 118 nM; on GCGR it was above 30000 nM.

In the case of `CCOC(=O)CCNC(=O)c1ccc(NC(c2ccc(-c3noc(C(C)(C)C)n3)cc2)C(C)C)cc1` (stereo not shown) [Compound 2-1, ethyl 3-(4-((1-(4-(5-(tert-butyl)-1,2,4-oxadiazol-3-yl)phenyl)-2-methylpropyl)amino)benzamido)propanoate], the concentration for half-maximal inhibition (IC50) at glucagon receptor (GCGR) was 240 nM; on GCGR, 2900 nM.

For `CCC(C)C(Nc1ccc(-c2nnc(-c3ccc(F)cc3)o2)cc1)c1ccc(C(=O)NCCC(=O)O)cc1` (stereo not shown) [Compound 3-8, 3-(4-(1-((4-(5-(4-fluorophenyl)-1,3,4-oxadiazol-2-yl)phenyl)amino)-2-methylbutyl)benzamido)propanoic acid], the half-maximal inhibitory concentration (IC50) against glucagon receptor (GCGR) stood at 1030 nM; at GCGR, 74 nM.

In the case of `CC(C)CC(Nc1ccc(C(=O)NCCC(=O)O)cc1)c1ccc(-c2noc(-c3cccs3)n2)cc1` (stereo not shown) [Compound 2-14, 3-(4-((3-methyl-1-(4-(5-(thiophen-2-yl)-1,2,4-oxadiazol-3-yl)phenyl)butyl)amino)benzamido)propanoic acid], the 50% inhibitory concentration (IC50) against glucagon receptor (GCGR) stood at 1390 nM; on GCGR it was 274 nM.

On to `CC(C)[C@H](Nc1ccc(C(=O)NCCC(=O)O)cc1)c1ccc(-c2nc3ccccc3o2)cc1` [Compound 4-7, (S)-3-(4-((1-(4-(benzo[d]oxazol-2-yl)phenyl)-2-methylpropyl)amino)benzamido)propanoic acid], for which the IC50 against glucagon receptor (GCGR) is 651 nM; at GCGR it was 20 nM.

As to `CC(C)C(Nc1ccc(-c2nnc(-c3ccc(F)cc3)o2)cc1)c1ccc(C(=O)NCCC(=O)O)cc1` (stereo not shown) [Compound 3-10, 3-(4-(1-((4-(5-(4-fluorophenyl)-1,3,4-oxadiazol-2-yl)phenyl)amino)-2-methylpropyl)benzamido)propanoic acid], the half-maximal inhibitory concentration (IC50) worked out at 4500 nM at glucagon receptor (GCGR) and 143 nM at GCGR.

In the case of `CCCC[C@@H](Nc1ccc(C(=O)NCCC(=O)OCC)cc1)c1ccc(-c2noc(-c3ccccn3)n2)cc1` [Compound 2-39, ethyl (R)-3-(4-((1-(4-(5-(pyridin-2-yl)-1,2,4-oxadiazol-3-yl)phenyl)pentyl)amino)benzamido)propanoate], the 50% inhibitory concentration (IC50) against glucagon receptor (GCGR) is 672 nM; at GCGR, above 30000 nM.

`CCCC[C@@H](Nc1ccc(C(=O)NCCC(=O)OCC)cc1)c1ccc(-c2nnc(C(F)(F)F)o2)cc1` [Compound 1-52, ethyl (R)-3-(4-((1-(4-(5-(trifluoromethyl)-1,3,4-oxadiazol-2-yl)phenyl)pentyl)amino)benzamido)propanoate]: the half-inhibitory concentration (IC50) at glucagon receptor (GCGR) is 439 nM; at GCGR, above 30000 nM.

As for `CC(C)C[C@@H](Nc1ccc(C(=O)NCCC(=O)O)cc1)c1ccc(-c2noc(-c3ccccc3)n2)cc1` [Compound 2-44, (R)-3-(4-((3-methyl-1-(4-(5-phenyl-1,254-oxadiazol-3-yl)phenyl)butyl)amino)benzamido)propanoic acid], the IC50 was 334 nM on glucagon receptor (GCGR) and 199 nM at GCGR.

Turning to `CCOC(=O)CCNC(=O)c1ccc(N[C@@H](CC(C)C)c2ccc(-c3nc(-c4ccccc4)no3)cc2)cc1` [Compound 5-1, ethyl (S)-3-(4-((3-methyl-1-(4-(3-phenyl-1,2,4-oxadiazol-5-yl)phenyl)butyl)amino)benzamido)propanoate], the IC50 worked out at 52 nM against glucagon receptor (GCGR) and 637 nM on GCGR.
